Assays:
Type in all cases: in vivo
Polygonum convolvulus = test: Pre-emergence herbicidal activity against POLCO; details: dosage 80 g/ha; for pest or weed control at 80 g/ha: Fallopia convolvulus, 504 h
Description: (§1) 1. Pre-Emergence Herbicidal Action and Crop Plant Compatibility Seeds of monocotyledonous and dicotyledonous weed plants and crop plants are placed in plastic or wood fiber pots and covered with soil. The compounds of the invention, formulated in the form of wettable powders (WP) or as emulsion concentrates (EC), are then applied onto the surface of the covering soil as aqueous suspension or emulsion with addition of 0.5% additive at a water application rate of 600 l/ha (converted). After the treatment, the pots are placed in a greenhouse and kept under good growth conditions for the trial plants. After about 3 weeks, the effect of the preparations is scored visually in comparison with untreated controls as percentages. For example, 100% activity=the plants have died, 0% activity=like control plants. POLCO: Polygonum convolvulus SETVI: Setaria viridis

Hordeum murinum = test: Pre-emergence herbicidal activity against HORMU; details: dosage 80 g/ha; for pest or weed control at 80 g/ha: Hordeum murinum, 504 h
Description: as §1, with “ECHCG: Echinochloa crus-galli HORMU: Hordeum murinum” for “POLCO: Polygonum convolvulus SETVI: Setaria viridis”

Avena fatua [1] = test: Post-emergence herbicidal activity against AVEFA; details: dosage 320 g/ha, rated about 3 weeks after treatment; for pest or weed control at 320 g/ha: Avena fatua, 504 h
How it was run: (§2)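 Greenhouse pots of sandy loam; plants sprayed at one-leaf stage, 2 to 3 weeks after sowing, with WP or EC formulations in water plus 0.5% additive at 600 l/ha. Activity rated visually after about 3 weeks against untreated controls (100% = plants dead, 0% = like control).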

Echinochloa crus-galli = test: Post-emergence herbicidal activity against ECHCG; details: dosage 320 g/ha, rated about 3 weeks after treatment; for pest or weed control at 320 g/ha: Echinochloa crus-galli, 504 h
How it was run: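 Greenhouse pot plants sprayed post-emergence at one-leaf stage (2-3 weeks after sowing) with WP or EC formulations, 0.5% additive, 600 l/ha water. Visual rating about 3 weeks later versus untreated controls: 100% = plants dead, 0% = like control.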

Avena fatua [2] = test: Pre-emergence herbicidal activity against AVEFA; details: dosage 80 g/ha; for pest or weed control at 80 g/ha: Avena fatua, 504 h, read-out: Pre-emergence herbicidal activity against AVEVA in % (AVEFA)
Description: as §1, with “AMARE: Amaranthus retroflexus AVEFA: Avena fatua” for “POLCO: Polygonum convolvulus SETVI: Setaria viridis”

Lolium rigidum = test: Pre-emergence herbicidal activity against LOLRI; details: dosage 80 g/ha; for pest or weed control at 80 g/ha: Lolium rigidum, 504 h
Description: as §1, with “LOLRI: Lolium rigidum PHBPU: Pharbitis purpurea” for “POLCO: Polygonum convolvulus SETVI: Setaria viridis”

Amaranthus retroflexus [3] = test: Pre-emergence herbicidal activity against AMARE; details: dosage 80 g/ha; for pest or weed control at 80 g/ha: Amaranthus retroflexus, 504 h
Description: as §1, with “AMARE: Amaranthus retroflexus AVEFA: Avena fatua” for “POLCO: Polygonum convolvulus SETVI: Setaria viridis”

Amaranthus retroflexus [4] = test: Post-emergence herbicidal activity against AMARE; details: Amaranthus retroflexus, 504 h, dosage 320 g/ha, rated about 3 weeks after treatment
How it was run: as §2

Pharbitis purpurea = test: Pre-emergence herbicidal activity against PHBPU; details: dosage 80 g/ha
Description: as §1, with “LOLRI: Lolium rigidum PHBPU: Pharbitis purpurea” for “POLCO: Polygonum convolvulus SETVI: Setaria viridis”

SMILES | pest or weed control at 80 g/ha (Polygonum convolvulus) [%] | pest or weed control at 80 g/ha (Hordeum murinum) [%] | pest or weed control at 320 g/ha (Avena fatua [1]) [%] | pest or weed control at 320 g/ha (Echinochloa crus-galli) [%] | pest or weed control at 80 g/ha (Avena fatua [2]) [%] | pest or weed control at 80 g/ha (Lolium rigidum) [%] | pest or weed control at 80 g/ha (Amaranthus retroflexus [3]) [%] | pest or weed control at 320 g/ha (Amaranthus retroflexus [4]) [%] | pest or weed control at 80 g/ha (Pharbitis purpurea; Ipomoea purpurea, 504 h) [%] | Pre-emergence herbicidal activity against AVEVA in % (AVEFA) (Avena fatua [2]) [%] | Pre-emergence herbicidal activity against LOLRI in % (Lolium rigidum) [%] | Pre-emergence herbicidal activity against AMARE in % (Amaranthus retroflexus [3]) [%] | Pre-emergence herbicidal activity against PHBPU in % (Pharbitis purpurea) [%] | Pre-emergence herbicidal activity against POLCO in % (Polygonum convolvulus) [%] | Pre-emergence herbicidal activity against HORMU in % (Hordeum murinum) [%] | Post-emergence herbicidal activity against AVEFA in % (Avena fatua [1]) [%] | Post-emergence herbicidal activity against ECHCG in % (Echinochloa crus-galli) [%]
COC(=O)[C@@]1(OC)C[C@@H](NC(=O)C2(C)CC(c3cccc(F)c3)=NO2)CO1 (stereo partly drawn) [I-47, methyl (2R,4R)-4-[[3-(3-fluorophenyl)-5-methyl-4H-isoxazole-5-carbonyl]amino]-2-methoxytetrahydrofuran-2-carboxylate] | 90 | 90 | 100 | 100 | – | – | – | – | – | – | – | – | – | – | – | – | –
COC(=O)C1=C[C@@H](NC(=O)C2(C)CC(c3cccc(F)c3)=NO2)CO1 (stereo partly drawn) [I-46, methyl (3R)-3-[[3-(3-fluorophenyl)-5-methyl-4H-isoxazole-5-carbonyl]amino]-2,3-dihydrofuran-5-carboxylate] | 90 | 100 | 100 | 100 | 80 | 100 | 90 | 80 | – | – | – | – | – | – | – | – | –
COC(=O)C1COCC1NC(=O)[C@@]1(C)CC(c2cc(F)cc(F)c2)=NO1 (stereo partly drawn) [I-28, methyl 4-[[(5R)-3-(3,5-difluorophenyl)-5-methyl-4H-isoxazole-5-carbonyl]amino]tetrahydrofuran-3-carboxylate] | – | – | 100 | 80 | 100 | – | 90 | 80 | 90 | – | – | – | – | – | – | – | –
CCOC(=O)[C@H]1C[C@@H](NC(=O)C2(C)CC(c3cccc(F)c3)=NO2)CO1 (mixture of isomers) [I-30, ethyl cis-4-[[(5RS)-3-(3-fluorophenyl)-5-methyl-4H-isoxazole-5-carbonyl]amino]tetrahydrofuran-2-carboxylate] | 90 | 90 | 100 | 80 | 80 | 100 | 80 | – | – | – | – | – | – | – | – | – | –
COC(=O)C1=C[C@H](NC(=O)C2(C)CC(c3cccc(F)c3)=NO2)CO1 (stereo partly drawn) [I-39, methyl (3S)-3-[[3-(3-fluorophenyl)-5-methyl-4H-isoxazole-5-carbonyl]amino]-2,3-dihydrofuran-5-carboxylate] | 80 | 100 | 100 | 100 | – | 100 | – | 80 | – | – | – | – | – | – | – | – | –
COC(=O)C1CC(NC(=O)C2(C(C)(F)F)CC(c3cc(F)cc(F)c3)=NO2)CO1 (centres unmarked) [I-49] | – | – | – | – | – | – | – | – | – | 100 | 100 | 100 | 90 | 100 | 100 | 80 | 80
CC(C)(C)OC(=O)[C@H]1C[C@@H](NC(=O)C2(C)CC(c3cccc(F)c3)=NO2)CO1 (mixture of isomers) [I-33, tert-butyl cis-4-[[(5RS)-3-(3-fluorophenyl)-5-methyl-4H-isoxazole-5-carbonyl]amino]tetrahydrofuran-2-carboxylate] | 90 | 80 | 100 | 80 | – | – | – | 90 | – | – | – | – | – | – | – | – | –

From patent publication US11597724B2, “Herbicidally active 3-phenylisoxazoline-5-carboxamides of tetrahydro and dihydrofuran carboxylic acids and esters” (Bayer Aktiengesellschaft, priority 2017, dated 2023)
